# Values joined by “and” are separate entries in the source; they are usually repeats but may differ in a detail not shown here. Equal values may be shown once.
# Columns and labels:
# [1] = In vitro melanin binding by microscale thermophoresis / initial fluorescence (Monolith NT.115 pico)
# Description: Melanin binding of the CAI-II compounds was studied with a Monolith NT.115 pico (NanoTemper Technologies GmbH, Munich, Germany) device using the method of […] et al. […] Otherwise, normalized fluorescence signals and the ratio of relative fluorescence after heating (MST mode) were used. The MST software was used in expert mode to allow heating for 30 s. […] As ligand autofluorescence may interfere with the assay, their autofluorescence values were pretested with the detector used in experiment (nanoblue or pico-red). Fluorescence of the ligand should be below 20% of melanin fluorescence. Sample aggregation and adsorption to the capillaries were used also as exclusion criteria.
# [2] = Ocular pharmacokinetics in albino rats (iris-ciliary body, 3H-A01); type: in vivo, rat
# Description: (§1) Eight albino rats (RccHan/Wist) and 18 pigmented rats (HsdOla/LH) were obtained from Envigo Laboratories B.V. (The Netherlands) and were used in pharmacokinetic experiments. Additional 13 albino and 13 pigmented rats were used in generation of the analytical standards. Young adult (3–4 months; 340–445 g) rats were used.
# (§2) To conduct the pharmacokinetic study, bromo-containing CAI A15 (molecular structure presented in Table 1) was conveniently converted into [^3H]-A01 through catalytic dehalogenation in tritium gas. A15 (3.05 mg, 8.2 μmol) was dissolved in dimethylformamide (0.3 mL) and exposed to 99 mbar of tritium gas in a tritium manifold system for 1.5 h in the presence of 10% palladium on carbon (0.57 mg). Following filtration, the reaction mixture underwent double lyophilization with 1 mL ethanol to eliminate labile tritium. […] The crude material was purified via high-performance liquid chromatography, employing a Reprosil-Pur C18-HD column (250 × 10 mm, 5 μm), with a mobile phase comprising 40% acetonitrile in 50 mM ammonium hydrogen carbonate. Purified fractions were subsequently combined, subjected to solid-phase extraction, and eluted with ethanol. Radiochemical analysis indicated a purity exceeding 97%, with a molar activity of 0.29 TBq/mmol (7.9 Ci/mmol) and a total activity of 850 MBq (23 mCi). The solution of 1% A01 (10 mg/mL) was prepared similarly as in the IOP study (see Table 1) except that the solution contained also 72 μg/mL of [^3H]–A01 (specific activity 27.21 mCi/mg). The solution was prepared freshly for each experiment.
# (§3) Seven μL of A01 solution (10 mg/mL including 72 μg/mL of ^3H–A01) was topically applied to both eyes of albino and pigmented rats. Rats were euthanized with carbon dioxide and cervical dislocation. The eyes (n = 4) of albino rats were collected 0.5, 2, 4, and 7 h after treatment. The eyes of pigmented rats were dissected 0.5, 2, 4, 7, 24, 48, 72, 144, and 240 h after eye drop instillation. The eyes were enucleated and dissected immediately after euthanasia. Iris-ciliary body was dissected, snap frozen on dry ice, and stored at −80 °C until analysis. The analyses were conducted within 24 h from tissue dissection.
# (§4) Bound and unbound radioactivity of tritiated A01 was determined from dissected iris-ciliary body samples. First, the tissues were mechanically homogenized and diluted with 0.9% sodium chloride (weight ratio 35:1). Then, cellular unbound A01 was released from the iris-ciliary body cells by freezing and thawing the solutions three times with dry ice and a water bath (37 °C). Thereafter, the supernatant and pellet were separated by centrifuging the samples for 10 min at 13,000 rpm. The pellets were dissolved by using 60 min incubation in 100 μL of Solvable (PerkinElmer, Waltham, MA, USA). The samples were then bleached with 10 μL of hydrogen peroxide for 30 min. The pellet volume was calculated as the difference between the total and supernatant volumes.
# After subtracting the background radioactivity, the measured net counts per minute (cpm) were converted to disintegrations per minute (dpm) taking into account color quenching and device efficiency. Standard curves were generated for each matrix (albino and pigmented supernatants and pellets; Appendix Figure 1). […] Signal to noise ratios of measured pellet and supernatant samples in liquid scintillation counting are shown in Appendix Table 3.
# [3] = Ocular pharmacokinetics in pigmented rats (iris-ciliary body, 3H-A01); type: in vivo, rat; conditions: for bound fraction: pigmented tissue
# Description: as §1, §2, §3, §4
# After subtracting the background radioactivity, the measured net counts per minute (cpm) were converted to disintegrations per minute (dpm) taking into account color quenching and device efficiency. Standard curves were generated for each matrix (albino and pigmented supernatants and pellets; Appendix Figure 1). Finally, unbound, bound, and total A01 concentrations (ng/mg) in the iris-ciliary body of the […] were calculated using radioactivity (nCi) per μg of instilled A01 in the eye drops. Signal to noise ratios of measured pellet and supernatant samples in liquid scintillation counting are shown in Appendix Table 3.
# [4] = iris-ciliary body, single topical eye drop
compound,measurement,setting,value
C/C(=N\Nc1ccc(S(N)(=O)=O)cc1)c1cccnc1 [A01],Melanin binding classification,[1]; class by Kd,high (high (<65 μM))
same,Kd,"[1]; melanin nanoparticles 0.5 mg/mL, IF or MST mode, 68% confidence, read-out: Kd ± confidence (melanin binding)",48 ± 13 µM
same,concentration at 4 h,"[2]; RccHan/Wist (albino), rat, topical, 7 µL of 10 mg/mL solution per eye, albino iris-ciliary body, 4 h, read-out: free concentration by 4 h",~50 ng/g
same,tmax (bound drug),[2]; albino eyes,2 h
same,tmax(total drug),[2]; albino eyes,2 h
same,bound concentrations,[2]; albino iris-ciliary body,< 0.05 ng/mg
same,bound fraction,[2]; albino iris-ciliary body,below 10%
same,total concentration after decline,[2]; albino iris-ciliary body,≈ 0.05 ng/mg
same,"Cmax,unbound","[2]; albino iris-ciliary body, 2 h postdosing",0.50 ng/mg
same,"Cmax, total A01 concentration (bound + unbound)","[2]; albino iris-ciliary body, 2 h postdosing, 7 μL eye drop 10 mg/mL",0.54 ng/mg
same,"AUC0-last in albino tissues, bound A01",[2]; [4],0.09 (ng/mg) × h
same,"AUC0-last in albino tissues, total A01",[2]; [4],1.37 (ng/mg) × h
same,"AUC0-last in albino tissues, unbound A01",[2]; [4],1.29 (ng/mg) × h
same,concentration at 2 h,"[3]; HsdOla/LH (pigmented), rat, topical, 7 µL of 10 mg/mL solution per eye, pigmented iris-ciliary body, 2 h after administration, read-out: bound concentration at 2 h",~500 ng/g
same,concentration at 10 days,"[3]; HsdOla/LH (pigmented), rat, topical, 7 µL of 10 mg/mL solution per eye, pigmented iris-ciliary body, 10 days, read-out: bound concentration C10 days",20 ng/g
same,"exposure ratio (AUCpigm/AUCalbino), bound A01",[3]; iris-ciliary body,150 and 149.8
same,"exposure ratio (AUCpigm/AUCalbino), total A01",[3]; iris-ciliary body,18
same,"exposure ratio (AUCpigm/AUCalbino), unbound A01",[3]; iris-ciliary body,9.3
same,"AUC0-last in pigmented tissue, bound A01",[3]; [4],12.73 (ng/mg) × h
same,"AUC0-last in pigmented tissue, total A01",[3]; [4],24.72 (ng/mg) × h
same,"AUC0-last in pigmented tissue, unbound A01",[3]; [4],11.98 (ng/mg) × h
same,tmax (bound drug),[3]; pigmented eyes,24 h
same,tmax(total drug),[3]; pigmented eyes,24 h
same,"Cmax, total concentration","[3]; pigmented iris-ciliary body, at 24 h",0.36 ng/mg
same,time over which slow elimination continued,"[3]; pigmented iris-ciliary body, total drug",≥ 10 days
same,time over which unbound levels were extended,"[3]; pigmented iris-ciliary body, below quantitation limit at 6 days",at least 3 days
same,unbound concentrations,[3]; pigmented rat iris-ciliary body,10 to 800 nM
same,bound fraction,[3]; for 72 h,37–62%
same,bound fraction,[3]; later than 72 h,about 90%

# — article PMC11795524, “Melanin-Binding-Based Discovery of Topically Instilled Carbonic Anhydrase Inhibitors for Targeted Delivery and Prolonged Action in the Eye” (Molecular Pharmaceutics, 2025)
